{"source": "patent EP2272342B1", "about": "“Herbicidal compositions” (BASF SE, priority 1993, dated 1994)", "key": {"[1]": {"tested_on": "echinochloa crus galli", "assay": "Small field units in a maize field, 3-way tank-mix spray: weed control (Example 4)", "type": "in vivo", "details": "1500 a.i./ha; 14 days after treatment", "excerpt": "(§1) Small field units in a maize field, infested with echinochloa crus galli, solanum nigrum and chenopodium album are sprayed with a tank-mix suspension of dimethenamid, sulcotrione and atrazine. The stage of the weeds is \"full tillering\" of echinochloa and \"6-8 leaves stage\" for solanum and chenopodium. The lot size is 8 meters in length and 3 meters in broadth. The application rates are 1.08 kg/ha of dimethenamid, 150 or 210 g/ha of sulcotrione and 750 g/ha of atrazine. 14 days after treatment the efficacy is evaluated."}, "[2]": {"tested_on": "Solanum/Chenopodium", "assay": "Small field units in a maize field, 3-way tank-mix spray: weed control (Example 4)", "type": "in vivo, solanum nigrum and chenopodium album", "details": "1500 a.i./ha; 14 days after treatment", "description": "as §1, with “The application rates are 1.08 kg/ha of dimethenamid, 150 or 210 g/ha of sulcotrione and 750 g/ha of atrazine.” left out"}, "[3]": {"tested_on": "large crabgrass", "assay": "Field trial in corn, tankmix at early post-emergence: weed control (Example 2)", "type": "in vivo", "description": "A field trial is carried out employing FRONTIER® 7.5 EC and ACCENT® 75 WDG in control of large crabgrass in corn. Application is as tankmix combination at early post-emergence of the weeds (3 and 4 leaf stages). Application rates of a.i. are 1.5 and 0.75 kg/ha for dimethenamid and 37.2 and 19.2 g/ha for nicosulfuron. Combined application of 0.75 kg/ha of dimethenamid and 19.2 g/ha of nicosulfuron gave 85% control with negligible corn damage compared with 35% of nicosulfuron applied alone at 19.2 g/ha and 72% for dimethenamid at a higher rate of […]. Combined application at the higher rate of dimethenamid with 37.2 g/ha of nicosulfuron gave an even more dramatic effect with 95% control compared with 72% for dimethenamid and only 45% for nicosulfuron each alone."}, "[4]": {"tested_on": "cyperus rotundus", "assay": "Field trial in sugar cane plots, tank mix by backpack sprayer: weed control (Example 5)", "type": "in vivo", "description": "A field trial is carried out on plots (2 x 20 m) planted with sugar cane and infested with cyperus rotundus in the first or second growing stage and sprayed with a backpack sprayer in different concentrations in a tank mix. The amount of liquid spray broth is 400 I/ha.\nThe application rates are 2.7 kg/ha of dimethenamid with 60 g/ha of chlorimuron or with 1.6 kg/ha of a fixed ratio mixture of chlorimuron and diuron (1 : 19) which is commercially available as FRONT®. Visual evaluation is done 30 or 60 days after treatment (DAT) in percentage of control. The expected additive effect value is calculated according to the method of Colby: […]"}}}
{"compound": "CCNc1nc(Cl)nc(NC(C)C)n1", "note": "[Atrazine, atrazine]", "values": [{"measurement": "Echinochloa control", "setting": "[1]", "value": 23, "unit": "%"}, {"measurement": "Solanum/Chenopodium control", "setting": "[2]", "value": 16, "unit": "%"}]}
{"compound": "COCC(C)N(C(=O)CCl)c1c(C)csc1C", "note": "(centres unmarked) [Dimethenamid, 2-chloro-N-(2,4-dimethyl-3-thienyl)-N-(2-methoxy-1-methylethyl)-acetamide]", "values": [{"measurement": "control", "setting": "[3]; dimethenamid alone at a higher rate of 1.25 g/ha (so in the source)", "value": 72, "unit": "%"}, {"measurement": "control", "setting": "[3]; dimethenamid alone, higher rate (second comparison)", "value": 72, "unit": "%"}, {"measurement": "Cyperus Control (DAT)", "setting": "[4]; 2.25 kg a.i./ha, light to medium soil, 30 DAT", "value": "23 (30 DAT) %"}, {"measurement": "Cyperus Control (DAT)", "setting": "[4]; 2.7 kg a.i./ha, heavy soil, 60 DAT", "value": "10 (60 DAT) %"}, {"measurement": "Cyperus Control (DAT)", "setting": "[4]; 2.7 kg a.i./ha, light to medium soil, 30 DAT", "value": "27 (30 DAT) %"}, {"measurement": "Cyperus Control (DAT)", "setting": "[4]; 2.7 kg a.i./ha, light to medium soil, 60 DAT", "value": "19 (60 DAT) %"}]}
{"compound": "COc1cc(OC)nc(NC(=O)NS(=O)(=O)c2ncccc2C(=O)N(C)C)n1", "note": "[nicosulfuron]", "values": [{"measurement": "control", "setting": "[3]; nicosulfuron alone, 37.2 g/ha", "value": 45, "unit": "%"}, {"measurement": "control", "setting": "[3]; nicosulfuron applied alone at 19.2 g/ha", "value": 35, "unit": "%"}]}
{"compound": "chlorimuron", "values": [{"measurement": "Cyperus Control (DAT)", "setting": "[4]; 0.06 kg a.i./ha, light to medium soil, 30 DAT", "value": "58 (30 DAT) %"}]}
